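96-well plates; 48 h exposure; 5 concentrations. Endpoints by linear interpolation between flanking doses. Not reached: highest tested concentration assigned. Definition used: TGI = concentration required for complete inhibition of growth.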
Test system: SN12K1 renal
Experiment: NCI tumour cell line growth inhibition, 48 h

SMILES: CCOC(=O)c1ccc(N[C@@H]2c3cc4c(cc3C(c3cc(OC)c(O)c(OC)c3)[C@H]3C(=O)OCC32)OCO4)cc1 (stereo partly specified)
- TGI: 1440 nM
